Reference: PMC5374412, “Development of Pharmacophore Model for Indeno[1,2-b]indoles as Human Protein Kinase CK2 Inhibitors and Database Mining” (Pharmaceuticals, 2017)

Biological target: T1, human protein kinase CK2 (holoenzyme) (Homo sapiens, UniProt P68400)
T1 construct: gene CSNK2A1; CK2 holoenzyme, recombinant, expressed in E. coli; with CK2 regulatory subunit beta (CSNK2B), as part of the holoenzyme
Test: capillary electrophoresis-based kinase activity assay, peptide substrate RRRDDDSDDD
Type: biochemical

T1 sequence (P68400 whole entry): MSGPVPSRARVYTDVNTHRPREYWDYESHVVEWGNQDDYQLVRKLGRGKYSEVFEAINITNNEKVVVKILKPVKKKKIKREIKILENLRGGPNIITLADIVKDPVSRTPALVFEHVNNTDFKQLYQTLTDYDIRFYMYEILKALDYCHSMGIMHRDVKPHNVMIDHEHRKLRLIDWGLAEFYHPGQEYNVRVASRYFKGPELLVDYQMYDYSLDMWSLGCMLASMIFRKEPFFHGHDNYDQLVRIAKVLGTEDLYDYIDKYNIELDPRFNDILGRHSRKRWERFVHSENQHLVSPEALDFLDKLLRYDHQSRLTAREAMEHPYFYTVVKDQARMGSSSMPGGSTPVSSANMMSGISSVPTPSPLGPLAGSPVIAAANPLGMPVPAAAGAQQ
T1 sequence (P67870 2-215 partner): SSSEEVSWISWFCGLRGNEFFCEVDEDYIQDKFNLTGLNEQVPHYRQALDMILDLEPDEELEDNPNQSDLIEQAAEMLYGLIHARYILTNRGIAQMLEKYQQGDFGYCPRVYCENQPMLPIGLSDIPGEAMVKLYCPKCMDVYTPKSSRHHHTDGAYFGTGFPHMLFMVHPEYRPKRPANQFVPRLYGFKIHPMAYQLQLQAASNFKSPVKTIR

COC1=CC(=O)c2c(c(O)c3oc4cc(OC)cc(C)c4c(=O)c3c2O)C1=O [ZINC05765165, 6,11-dihydroxy-3,8-dimethoxy-1-methylbenzo[b]xanthene-7,10,12-trione]
IC50: 1.24 µM
